{"source": "patent US20220143222A1", "about": "“SUBCUTANEOUS AND INTRAMUSCULAR ADMINISTRATION OF PYRAZINE COMPOUNDS” (MediBeacon Inc., priority 2020, published 2022)", "assay": "MB-102 pig plasma concentration after subcutaneous dosing", "type": "in vivo", "conditions": "3.2 mpk; for concentration at 15 min / concentration at 30 min / concentration at 45 min / concentration at 60 min / concentration at 75 min / concentration at 90 min / concentration at 105 min / concentration at 120 min / concentration at 135 min / concentration at 150 min / concentration at 165 min / concentration at 180 min / concentration at 195 min / concentration at 210 min / concentration at 225 min / concentration at 240 min / concentration at 255 min / concentration at 270 min / concentration at 285 min / concentration at 300 min / concentration at 315 min / concentration at 330 min / concentration at 345 min / concentration at 360 min: Yorkshire, pig, plasma, subcutaneous, 3.2 mg/kg, read-out: MB-102 Pig Plasma Conc.; for SUM (plasma conc. over time): 15-360 min", "excerpt": "Juvenile Yorkshire pigs weighing approximately 25 kg were anesthetized, their body temperature stabilized, and an IV port surgically placed. A region approximately half-way along the line between the hip and knee joint was selected as the injection site and prepared by cleaning the skin and removing any exposed hair by shaving the selected area at least twice. Similarly, the site where two Quantum Leap fluorescent sensors (disclosed in U.S. Pat. No. 10,548,521) were to be positioned (chest) was prepared by washing and shaving. After the skin was dry the sensors were attached with commercially available skin adhesive and background skin auto-fluorescence measurements were recorded. After about 20 minutes of background fluorescence collection the subject animal was dosed either intravenously (animal 48019) or subcutaneously (animals 52771, 53701 09802, or 1539) or intramuscularly (09801) with PBS-1× formulated MB-102 at 3.2 mg/kg. Injection of the appropriate volume took place over about a minute. […] At this point glomerular elimination of MB-102 by the kidneys led to a decrease of fluorescence signal over time. Blood samples (1.5 mL) were taken immediately prior to the introduction of MB-102 (0 minutes) and at 15 minute intervals throughout the procedure. Blood was collected in BD vacutainer K2EDTA tubes, spun to plasma and stored at −80° C. until analyzed. Subsequently, the processed plasma samples were thawed, diluted with PBS-1× and analyzed by HPLC or UPLC and the concentration of MB-102 determined using standard analytical techniques. Further details for each animal are provided in the examples that follow.\nA sterile Mesoderm needle pack was obtained. The needle array featured five (5), 4 mm×30 gauge (0.30 mm dia) luer-hub needles arranged four (4) in a circular, symmetrical pattern (30 mm diameter) about a central needle and were attached via a distribution channel and a second luer-hub to a primary source syringe (3 mL in total deliverable volume). MB-102 API was formulated as 60 mg/mL of sodium salt in 1×PBS and placed in 5 mL serum cap vials. Immediately prior to dosing, the primary syringe was filled with a slight excess of the required amount of formulated MB-102 to achieve 3.2 mg/kg and the needle cap replaced until the subject animal and fluorescence monitor were ready for the experiment to begin and the injection initiated. Subject pig 52771 was dosed with 1.2 mL of MB-102 formulated in PBS-1× (3.2 mg/kg). […] Subject animal fluorescence was obtained during the entire course of the experiment (8 hrs) and blood samples were collected every 15 minutes, processed and stored at −80° C. Comparison of IV MB-102 plasma concentration versus time and subcutaneous MB-102 (both at 3.2 mg/kg dose) plasma concentration versus time are shown in FIG. 1.\nExperimental animal Yorkshire pig, 53701, was subject to subcutaneous (subQ) administration of MB-102 as described in Example 8. […] Plasma sampling was conducted as described in Example 8 and the results (Table 1) are plotted in FIG. 1.\nExperimental animal Yorkshire pig, 09802, was subject to subcutaneous (subQ) administration of MB-102 using a single needle in the same protocol as Example 8 but substituting a 2 mL syringe equipped with a single 4 mm×30 g needle. […] Plasma sampling was conducted as described in Example 8 and the results (Table 1) are plotted in FIG. 1.", "note": "Like-named read-outs stand apart in the source and are kept apart here."}
{"compound": "Nc1nc(C(=O)N[C@H](CO)C(=O)O)c(N)nc1C(=O)N[C@H](CO)C(=O)O", "note": "[MB-102, 3,6-diamino-2,5-bis{N-[(1R)-1-carboxy-2-hydroxyethyl]carbamoyl}pyrazine]", "values": [{"measurement": "concentration at 15 min", "setting": "pig 09802, SubQ", "result": 6670, "unit": "ng/mL"}, {"measurement": "concentration at 30 min", "setting": "pig 09802, SubQ", "result": 7530, "unit": "ng/mL"}, {"measurement": "concentration at 45 min", "setting": "pig 09802, SubQ", "result": 6850, "unit": "ng/mL"}, {"measurement": "concentration at 60 min", "setting": "pig 09802, SubQ", "result": 6540, "unit": "ng/mL"}, {"measurement": "concentration at 75 min", "setting": "pig 09802, SubQ", "result": 5490, "unit": "ng/mL"}, {"measurement": "concentration at 90 min", "setting": "pig 09802, SubQ", "result": 5260, "unit": "ng/mL"}, {"measurement": "concentration at 105 min", "setting": "pig 09802, SubQ", "result": 4810, "unit": "ng/mL"}, {"measurement": "concentration at 120 min", "setting": "pig 09802, SubQ", "result": 4410, "unit": "ng/mL"}, {"measurement": "concentration at 135 min", "setting": "pig 09802, SubQ", "result": 3900, "unit": "ng/mL"}, {"measurement": "concentration at 150 min", "setting": "pig 09802, SubQ", "result": 3710, "unit": "ng/mL"}, {"measurement": "concentration at 165 min", "setting": "pig 09802, SubQ", "result": 3500, "unit": "ng/mL"}, {"measurement": "concentration at 180 min", "setting": "pig 09802, SubQ", "result": 3070, "unit": "ng/mL"}, {"measurement": "concentration at 195 min", "setting": "pig 09802, SubQ", "result": 2720, "unit": "ng/mL"}, {"measurement": "concentration at 210 min", "setting": "pig 09802, SubQ", "result": 2500, "unit": "ng/mL"}, {"measurement": "concentration at 225 min", "setting": "pig 09802, SubQ", "result": 2200, "unit": "ng/mL"}, {"measurement": "concentration at 240 min", "setting": "pig 09802, SubQ", "result": 1990, "unit": "ng/mL"}, {"measurement": "concentration at 255 min", "setting": "pig 09802, SubQ", "result": 1730, "unit": "ng/mL"}, {"measurement": "concentration at 270 min", "setting": "pig 09802, SubQ", "result": 1600, "unit": "ng/mL"}, {"measurement": "concentration at 285 min", "setting": "pig 09802, SubQ", "result": 1430, "unit": "ng/mL"}, {"measurement": "concentration at 300 min", "setting": "pig 09802, SubQ", "result": 1300, "unit": "ng/mL"}, {"measurement": "concentration at 315 min", "setting": "pig 09802, SubQ", "result": 1180, "unit": "ng/mL"}, {"measurement": "concentration at 330 min", "setting": "pig 09802, SubQ", "result": 1030, "unit": "ng/mL"}, {"measurement": "concentration at 345 min", "setting": "pig 09802, SubQ", "result": 914, "unit": "ng/mL"}, {"measurement": "concentration at 360 min", "setting": "pig 09802, SubQ", "result": 829, "unit": "ng/mL"}, {"measurement": "concentration at 15 min", "setting": "pig 52771, SubQ", "result": 6130, "unit": "ng/mL"}, {"measurement": "concentration at 30 min", "setting": "pig 52771, SubQ", "result": 8510, "unit": "ng/mL"}, {"measurement": "concentration at 45 min", "setting": "pig 52771, SubQ", "result": 8790, "unit": "ng/mL"}, {"measurement": "concentration at 60 min", "setting": "pig 52771, SubQ", "result": 8840, "unit": "ng/mL"}, {"measurement": "concentration at 75 min", "setting": "pig 52771, SubQ", "result": 7840, "unit": "ng/mL"}, {"measurement": "concentration at 90 min", "setting": "pig 52771, SubQ", "result": 6920, "unit": "ng/mL"}, {"measurement": "concentration at 105 min", "setting": "pig 52771, SubQ", "result": 6070, "unit": "ng/mL"}, {"measurement": "concentration at 120 min", "setting": "pig 52771, SubQ", "result": 5560, "unit": "ng/mL"}, {"measurement": "concentration at 135 min", "setting": "pig 52771, SubQ", "result": 5000, "unit": "ng/mL"}, {"measurement": "concentration at 150 min", "setting": "pig 52771, SubQ", "result": 4400, "unit": "ng/mL"}, {"measurement": "concentration at 165 min", "setting": "pig 52771, SubQ", "result": 3950, "unit": "ng/mL"}, {"measurement": "concentration at 180 min", "setting": "pig 52771, SubQ", "result": 3480, "unit": "ng/mL"}, {"measurement": "concentration at 195 min", "setting": "pig 52771, SubQ", "result": 3190, "unit": "ng/mL"}, {"measurement": "concentration at 210 min", "setting": "pig 52771, SubQ", "result": 2830, "unit": "ng/mL"}, {"measurement": "concentration at 225 min", "setting": "pig 52771, SubQ", "result": 2500, "unit": "ng/mL"}, {"measurement": "concentration at 240 min", "setting": "pig 52771, SubQ", "result": 2240, "unit": "ng/mL"}, {"measurement": "concentration at 255 min", "setting": "pig 52771, SubQ", "result": 2000, "unit": "ng/mL"}, {"measurement": "concentration at 270 min", "setting": "pig 52771, SubQ", "result": 1760, "unit": "ng/mL"}, {"measurement": "concentration at 285 min", "setting": "pig 52771, SubQ", "result": 1630, "unit": "ng/mL"}, {"measurement": "concentration at 330 min", "setting": "pig 52771, SubQ", "result": 1210, "unit": "ng/mL"}, {"measurement": "concentration at 345 min", "setting": "pig 52771, SubQ", "result": 1140, "unit": "ng/mL"}, {"measurement": "concentration at 360 min", "setting": "pig 52771, SubQ", "result": 1000, "unit": "ng/mL"}, {"measurement": "concentration at 15 min", "setting": "pig 53701, SubQ", "result": 8110, "unit": "ng/mL"}, {"measurement": "concentration at 30 min", "setting": "pig 53701, SubQ", "result": 7410, "unit": "ng/mL"}, {"measurement": "concentration at 45 min", "setting": "pig 53701, SubQ", "result": 6620, "unit": "ng/mL"}, {"measurement": "concentration at 60 min", "setting": "pig 53701, SubQ", "result": 5940, "unit": "ng/mL"}, {"measurement": "concentration at 75 min", "setting": "pig 53701, SubQ", "result": 5260, "unit": "ng/mL"}, {"measurement": "concentration at 90 min", "setting": "pig 53701, SubQ", "result": 4720, "unit": "ng/mL"}, {"measurement": "concentration at 105 min", "setting": "pig 53701, SubQ", "result": 4230, "unit": "ng/mL"}, {"measurement": "concentration at 120 min", "setting": "pig 53701, SubQ", "result": 3670, "unit": "ng/mL"}, {"measurement": "concentration at 135 min", "setting": "pig 53701, SubQ", "result": 3250, "unit": "ng/mL"}, {"measurement": "concentration at 150 min", "setting": "pig 53701, SubQ", "result": 3000, "unit": "ng/mL"}, {"measurement": "concentration at 165 min", "setting": "pig 53701, SubQ", "result": 2640, "unit": "ng/mL"}, {"measurement": "concentration at 180 min", "setting": "pig 53701, SubQ", "result": 2390, "unit": "ng/mL"}, {"measurement": "concentration at 195 min", "setting": "pig 53701, SubQ", "result": 2170, "unit": "ng/mL"}, {"measurement": "concentration at 210 min", "setting": "pig 53701, SubQ", "result": 1940, "unit": "ng/mL"}, {"measurement": "concentration at 225 min", "setting": "pig 53701, SubQ", "result": 1670, "unit": "ng/mL"}, {"measurement": "concentration at 240 min", "setting": "pig 53701, SubQ", "result": 1510, "unit": "ng/mL"}, {"measurement": "concentration at 255 min", "setting": "pig 53701, SubQ", "result": 1350, "unit": "ng/mL"}, {"measurement": "concentration at 270 min", "setting": "pig 53701, SubQ", "result": 1220, "unit": "ng/mL"}, {"measurement": "concentration at 285 min", "setting": "pig 53701, SubQ", "result": 1090, "unit": "ng/mL"}, {"measurement": "concentration at 300 min", "setting": "pig 53701, SubQ", "result": 987, "unit": "ng/mL"}, {"measurement": "concentration at 315 min", "setting": "pig 53701, SubQ", "result": 867, "unit": "ng/mL"}, {"measurement": "concentration at 330 min", "setting": "pig 53701, SubQ", "result": 800, "unit": "ng/mL"}, {"measurement": "concentration at 345 min", "setting": "pig 53701, SubQ", "result": 704, "unit": "ng/mL"}, {"measurement": "concentration at 360 min", "setting": "pig 53701, SubQ", "result": 631, "unit": "ng/mL"}, {"measurement": "SUM (plasma conc. over time)", "setting": "pig 09802, SubQ", "result": "1,210,924 ng/mL*min"}, {"measurement": "SUM (plasma conc. over time)", "setting": "pig 52771, SubQ", "result": "1,413,823 ng/mL*min"}, {"measurement": "SUM (plasma conc. over time)", "setting": "pig 53701, SubQ", "result": "1,077,956 ng/mL*min"}]}
